This passage reports IC50 results from patent US20170253601A1, “Substituted Pyrrolidine Compounds” (EPIZYME, INC., priority 2014, published 2017).

pIC50: −log10 of the molar value.

For one assay, the target named is T1, SMYD2 (Homo sapiens, UniProt Q9NRG4).
T1 construct: Full length SMYD2 (NP 064582.2) was cloned; His6 (N, cleaved yes); FLAG (N); made in house; host or cells: Sf9 insect cells
T1 sequence (Q9NRG4 whole entry): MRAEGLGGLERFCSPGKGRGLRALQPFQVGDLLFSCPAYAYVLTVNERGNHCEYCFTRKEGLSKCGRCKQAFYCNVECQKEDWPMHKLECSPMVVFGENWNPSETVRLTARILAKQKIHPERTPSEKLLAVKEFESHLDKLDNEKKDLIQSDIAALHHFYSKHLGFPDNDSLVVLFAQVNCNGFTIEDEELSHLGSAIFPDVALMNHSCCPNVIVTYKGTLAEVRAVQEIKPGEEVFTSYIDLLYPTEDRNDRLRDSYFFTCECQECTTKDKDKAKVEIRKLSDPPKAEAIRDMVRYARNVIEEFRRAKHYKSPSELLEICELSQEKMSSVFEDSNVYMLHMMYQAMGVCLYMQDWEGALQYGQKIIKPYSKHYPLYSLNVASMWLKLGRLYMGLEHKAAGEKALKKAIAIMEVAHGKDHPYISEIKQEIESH
Put plainly: SMYD2 Biochemical Assay (3H-SAM, biotinylated peptide substrate, Flashplate). The note with it: IC50 values are an average of n = 1 to n = 50; read-out: SMYD2 Biochem IC50 (μM)*. Summed up:
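Full-length His/FLAG-tagged SMYD2 expressed in Sf9 cells with tag cleaved, 1.5 nM, pre-incubated 30 min at room temperature with compound, then 10 nM 3H-SAM and 60 nM biotinylated peptide added. Buffer 20 mM Bicine pH 7.6, 1 mM TCEP, 0.005% BSG, 0.002% Tween20, 2% DMSO. Stopped with 600 uM cold SAM; 3H-peptide captured on streptavidin Flashplate; IC50 by curve fit.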
In general, IC50 refers to the concentration that inhibits the measured activity by half. On to `CC(C)N1C[C@H](C)[C@H](NC(=O)c2cc(C3CN(C)C3)on2)C1` (racemic) [compound 343, (±)-cis-N-[4-methyl-1-(propan-2-yl)pyrrolidin-3-yl]-5-(1-methylazetidin-3-yl)-1,2-oxazole-3-carboxamide], for which the IC50 was over 50 µM. Same read-out and setting: next, `C[C@@H]1CN(CC(=O)N2CCNCC2)C[C@H]1NC(=O)c1cc(C2CC2)on1` (racemic) [compound 311, (±)-trans-5-cyclopropyl-N-{4-methyl-1-[2-oxo-2-(piperazin-1-yl)ethyl]pyrrolidin-3-yl}-1,2-oxazole-3-carboxamide]: over 50 µM; `C[C@H]1CN(Cc2ccc(N3CCCC3)cc2)C[C@H]1NC(=O)c1cc(C2CC2)on1` (racemic) [compound 229, (±)-cis-5-cyclopropyl-N-[4-methyl-1-{[4-(pyrrolidin-1-yl)phenyl]methyl}pyrrolidin-3-yl]-1,2-oxazole-3-carboxamide]: 3.32 µM. The same measure, in the same setting: next, `CN1C[C@H](NC(=O)c2cc(C3CC3)on2)[C@@H](C2CC2)C1` (racemic) [compound 141, (±)-trans-5-cyclopropyl-N-[4-cyclopropyl-1-methylpyrrolidin-3-yl]-1,2-oxazole-3-carboxamide]: over 50 µM; `CC(C)N1C[C@H](NC(=O)c2cc(C3CC3)on2)C[C@H]1COCC#CC1CCCCC1` (stereo in doubt) [compound 244, (±)-trans-N-[5-{[(3-cyclo-hexylprop-2-yn-1-yl)oxy]methyl}-1-(propan-2-yl)pyrrolidin-3-yl]-5-cyclopropyl-1,2-oxazole-3-carboxamide]: over 50 µM; `CC(C)N1C[C@H](C)[C@H](NC(=O)c2cc(CC(F)F)on2)C1` (racemic) [compound 345, (±)-cis-5-(2,2-difluoro-ethyl)-N-[4-methyl-1-(propan-2-yl)pyrrolidin-3-yl]-1,2-oxazole-3-carboxamide]: 5.84 µM. On the same count and under the same terms, next, `CC(C)c1cc(C(=O)N[C@@H]2C[C@@H](CNC(=O)C3CCCCC3)N(C3CC3)C2)no1` (stereo in doubt) [compound 243, (±)-trans-N-[5-[(cyclo-hexylformamido)methyl]-1-cyclopropylpyrrolidin-3-yl]-5-(propan-2-yl)-1,2-oxazole-3-carboxamide]: over 50 µM. As for `CN1C[C@H](NC(=O)c2cc(C3CC3)on2)[C@@H](C(C)(C)C)C1` (racemic) [compound 144, (±)-trans-N-[4-tert-butyl-1-methylpyrrolidin-3-yl]-5-cyclopropyl-1,2-oxazole-3-carboxamide], the IC50 is over 50 µM.

Consider `C[C@@H]1CN(Cc2ccc(Cl)cc2Cl)C[C@H]1NC(=O)c1cc(C2CC2)on1` (racemic) [compound 136, (±)-trans-5-cyclopropyl-N-[1-[(2,4-dichloro-phenyl)methyl]-4-methylpyrrolidin-3-yl]-1,2-oxazole-3-carboxamide], for which the IC50 is over 50 µM.

Turning to `C[C@H]1CN(Cc2ccc(Cl)cc2Cl)C[C@H]1NC(=O)c1cc(C2CC2)on1` (racemic) [compound 321, (±)-cis-5-cyclopropyl-N-{1-[(2,4-dichloro-phenyl)methyl]-4-methylpyrrolidin-3-yl}-1,2-oxazole-3-carboxamide], the IC50 worked out at 4.64 µM. For the compound `CC(C)N1C[C@H](C)[C@H](NC(=O)c2cc(C3(C)CC3)on2)C1` (racemic) [compound 217, (±)-cis-N-[4-methyl-1-(propan-2-yl)pyrrolidin-3-yl]-5-(1-methyl-cyclopropyl)-1,2-oxazole-3-carboxamide], the IC50 is 22.3 µM. Consider `CCC(c1ccccc1)N1C[C@H](C)[C@H](NC(=O)c2cc(C3CC3)on2)C1` (relative stereo) [compound 329, cis-5-cyclopropyl-N-[4-methyl-1-(1-phenyl-propyl)pyrrolidin-3-yl]-1,2-oxazole-3-carboxamide], for which the IC50 came out at 1.15 µM. On to `C[C@H]1CN(Cc2ccccc2Cl)C[C@H]1NC(=O)c1cc(C2CC2)on1` (racemic) [compound 275, (±)-cis-N-{1-[(2-chloro-phenyl)methyl]-4-methyl-pyrrolidin-3-yl}-5-cyclopropyl-1,2-oxazole-3-carboxamide], for which the half-inhibitory concentration (IC50) was found to be 3.02 µM. Still for that read-out and setting: next, `CC(C)N1CC(CNC(=O)c2ccccc2)C(NC(=O)c2cc(C3CC3)on2)C1` (stereo not shown) [compound 237, 5-cyclopropyl-N-{4-[(phenylformamido)methyl]-1-(propan-2-yl)pyrrolidin-3-yl}-1,2-oxazole-3-carboxamide]: 10.5 µM; `C[C@H]1CN(CC(C)(C)C)C[C@H]1NC(=O)c1cc(C2CC2)on1` (racemic) [compound 165, (±)-cis-5-cyclopropyl-N-[1-(2,2-dimethyl-propyl)-4-methylpyrrolidin-3-yl]-1,2-oxazole-3-carboxamide]: 11.3 µM; `CC(C)N1C[C@H](C)[C@H](NC(=O)c2cc(C3CNC3)on2)C1` (racemic) [compound 342, (±)-cis-5-(azetidin-3-yl)-N-[4-methyl-1-(propan-2-yl)pyrrolidin-3-yl]-1,2-oxazole-3-carboxamide]: over 50 µM. In the case of `C[C@H]1CN(Cc2c[nH]c3ccccc23)C[C@H]1NC(=O)c1cc(C2CC2)on1` (racemic) [compound 194, (±)-cis-5-cyclopropyl-N-[1-(1H-indol-3-ylmethyl)-4-methyl-pyrrolidin-3-yl]-1,2-oxazole-3-carboxamide], the IC50 stood at 6.86 µM. Still for that read-out and setting: next, `C[C@@H]1CN(CC(=O)N(C)C)C[C@H]1NC(=O)c1cc(C2CC2)on1` (racemic) [compound 277, (±)-trans-5-cyclopropyl-N-{1-[(dimethyl-carbamoyl)methyl]-4-methylpyrrolidin-3-yl}-1,2-oxazole-3-carboxamide]: over 50 µM. On the same count and under the same terms, next, `C[C@H]1CN(CC2CCN(C)CC2)C[C@H]1NC(=O)c1cc(C2CC2)on1` (racemic) [compound 338, (±)-cis-5-cyclopropyl-N-{4-methyl-1-[(1-methylpiperidin-4-yl)methyl]pyrrolidin-3-yl}-1,2-oxazole-3-carboxamide]: over 50 µM. The same measure, in the same setting: next, `CC(C)CCN1C[C@H](C)[C@H](NC(=O)c2cc(C3CC3)on2)C1` (racemic) [compound 213, (±)-cis-5-cyclopropyl-N-[4-methyl-1-(3-methylbutyl)pyrrolidin-3-yl]-1,2-oxazole-3-carboxamide]: 1.62 µM.

Regarding `C[C@@H]1CN(Cc2c[nH]cn2)C[C@H]1NC(=O)c1cc(C2CC2)on1` (racemic) [compound 180, (±)-trans-5-cyclopropyl-N-[1-(1H-imidazol-4-ylmethyl)-4-methylpyrrolidin-3-yl]-1,2-oxazole-3-carboxamide], the IC50 was found to be 42.5 µM. The same measure, in the same setting: next, `C[C@H]1CN(Cc2ccc(Cl)cc2)C[C@H]1NC(=O)c1cc(C2CC2)on1` (racemic) [compound 210, (±)-cis-N-[1-[(4-chloro-phenyl)methyl]-4-methylpyrrolidin-3-yl]-5-cyclopropyl-1,2-oxazole-3-carboxamide]: 4.32 µM; `C[C@H]1CN(CCC2CCNCC2)C[C@H]1NC(=O)c1cc(C2CC2)on1` (racemic) [compound 337, (±)-cis-5-cyclopropyl-N-{4-methyl-1-[2-(piperidin-4-yl)ethyl]pyrrolidin-3-yl}-1,2-oxazole-3-carboxamide]: 10.6 µM; `CC(C)C[C@H]1CN(C(C)C)C[C@@H]1NC(=O)c1cc(C2CC2)on1` (racemic) [compound 154, (±)-trans-5-cyclopropyl-N-[4-(2-methylpropyl)-1-(propan-2-yl)pyrrolidin-3-yl]-1,2-oxazole-3-carboxamide]: over 50 µM.

Still in this assay, the particulars now being: Table 1; average of n = 1 to n = 50; read-out: SMYD2 Biochem IC50.
Broadly, the pIC50 is the IC50 on a negative log10 scale, so that one unit is a factor of ten. On to `O=C(N[C@@H]1CN(C2CC2)C[C@@H]1CO)c1cc(C2CC2)on1` (racemic) [Cpd. No. 48, (±)-cis-5-cyclopropyl-N-(1-cyclopropyl-4-(hydroxymethyl)pyrrolidin-3-yl)isoxazole-3-carboxamide], for which the pIC50 is 5.07.

The assay is the same for the next values; noted with them: Table 2; average of n = 1 to n = 50; read-out: SMYD2 Biochem IC50.
With `C[C@@H]1CN(C(=O)C2CCNCC2)C[C@H]1NC(=O)c1cc(C2CC2)on1` (racemic) [compound 94, (±)-trans-5-cyclopropyl-N-(4-methyl-1-(piperidine-4-carbonyl)pyrrolidin-3-yl)isoxazole-3-carboxamide], the pIC50 was under 4.30. The same measure, in the same setting: next, `C[C@H]1CN(Cc2ccncc2)C[C@H]1NC(=O)c1cc(C2CC2)on1` (racemic) [compound 108, (±)-cis-5-cyclopropyl-N-(4-methyl-1-(pyridin-4-ylmethyl)pyrrolidin-3-yl)isoxazole-3-carboxamide]: 4.65; `C[C@H]1CN(CCN)C[C@H]1NC(=O)c1cc(C2CC2)on1` (racemic) [compound 78, (±)-cis-N-(1-(2-aminoethyl)-4-methylpyrrolidin-3-yl)-5-cyclopropylisoxazole-3-carboxamide]: 4.56. Same read-out and setting: next, `C[C@@H]1CN(C2CCNCC2)C[C@H]1NC(=O)c1cc(C2CC2)on1` (racemic) [compound 104, (±)-trans-5-cyclopropyl-N-((3S,4R)-4-methyl-1-(piperidin-4-yl)pyrrolidin-3-yl)isoxazole-3-carboxamide]: under 4.30; `C[C@@H]1CN(C2CCCCC2)C[C@@H]1NC(=O)c1cc(C2CC2)on1` (racemic) [compound 72, (±)-cis-N-(1-cyclohexyl-4-methylpyrrolidin-3-yl)-5-cyclopropylisoxazole-3-carboxamide]: 4.74. Still for that read-out and setting: next, `C[C@@H]1CN(C2CCN(C(=O)OC(C)(C)C)CC2)C[C@H]1NC(=O)c1cc(C2CC2)on1` (racemic) [compound 103, (±)-trans-tert-butyl 4-((3S,4R)-3-(5-cyclopropylisoxazole-3-carboxamido)-4-methylpyrrolidin-1-yl)piperidine-1-carboxylate]: under 4.30.
